According to PMC6835155, “Lessons from LIMK1 enzymology and their impact on inhibitor design” (Biochemical Journal, 2019):
Counter-ions that a name gives are not always drawn. Like-named read-outs stand apart in the source and are kept apart here.

Assays:
LIMK2KD = molecular target: T1, LIMK2KD (Homo sapiens, UniProt P53671); assay: Differential (dynamic) scanning fluorimetry (DSF) assay, LIMK2KD; type: binding; settings: for ΔTm at 10 µM: read-out: TM Shift LIMK2 (K)
T1 construct: The cDNA coding for LIMK2 residues 330 to 632 was PCR amplified; His6 (N, cleaved yes); made in house; host or cells: baculovirus; Sf9 for virus, TriEx insect cells for expression

LIMK1KD = molecular target: T2, LIMK1KD (Homo sapiens, UniProt P53667); assay: Differential (dynamic) scanning fluorimetry (DSF) assay, LIMK1KD; type: binding; settings: for ΔTm at 10 µM: read-out: TM Shift LIMK1 (K)
T2 construct: His6 (N, cleaved yes); made in house; host or cells: baculovirus; Sf9 for virus, TriEx insect cells for expression

[1] = LIMK2KD, compound 10 µM, single shot
[2] = 2 µM LIMK1KD, compound 10 µM, single shot
[3] = LIMK2KD, compound 10 µM, single shot, 10 µM

T1 sequence (P53671 330-632): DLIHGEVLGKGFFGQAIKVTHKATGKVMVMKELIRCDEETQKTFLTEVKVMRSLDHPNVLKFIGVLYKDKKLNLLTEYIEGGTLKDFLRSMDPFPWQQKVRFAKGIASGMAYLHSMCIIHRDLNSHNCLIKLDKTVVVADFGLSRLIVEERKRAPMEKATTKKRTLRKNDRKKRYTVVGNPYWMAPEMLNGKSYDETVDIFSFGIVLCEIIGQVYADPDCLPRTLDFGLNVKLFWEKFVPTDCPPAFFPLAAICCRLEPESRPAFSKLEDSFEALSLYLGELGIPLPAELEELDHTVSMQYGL
T2 sequence (P53667 330-637): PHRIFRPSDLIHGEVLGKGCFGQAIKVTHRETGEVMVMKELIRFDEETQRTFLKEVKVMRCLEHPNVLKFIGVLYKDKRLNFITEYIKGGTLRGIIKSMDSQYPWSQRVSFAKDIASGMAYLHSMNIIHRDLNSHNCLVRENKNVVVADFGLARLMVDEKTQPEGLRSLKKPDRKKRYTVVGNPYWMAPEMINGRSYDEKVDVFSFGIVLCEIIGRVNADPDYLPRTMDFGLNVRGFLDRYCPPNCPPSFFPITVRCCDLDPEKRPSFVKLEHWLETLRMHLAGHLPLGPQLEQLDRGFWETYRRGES

| SMILES | TM Shift LIMK2 (K) (LIMK2KD; [1]) | TM Shift LIMK1 (K) (LIMK1KD; [2]) | ΔTm at 10 µM (LIMK2KD; [1]) | ΔTm at 10 µM (LIMK1KD; [2]) | further results |
| --- | --- | --- | --- | --- | --- |
| C=CC(=O)Nc1ccc2ncnc(Nc3cccc(Br)c3)c2c1 [PD168393] | 2.0 K | 0.4 K |  |  |  |
| CCN(CC)CCCCNc1ncc2cc(-c3cc(OC)cc(OC)c3)c(NC(=O)NC(C)(C)C)nc2n1 [PD173074] |  |  | 1.2 °C | 1.1 °C |  |
| O=C(NOCC1CC1)c1ccc(F)c(F)c1Nc1ccc(I)cc1Cl [PD184352 (CI-1040)] |  |  | 0.9 °C | 0.1 °C |  |
| O=C(NOCC(O)CO)c1cc(Br)c(F)c(F)c1Nc1ccc(I)cc1F (centres unmarked) [PD318088] | 2.8 K | 0.6 K |  |  |  |
| CN(c1ccccc1CNc1nc(Nc2ccc3c(c2)CC(=O)N3)ncc1C(F)(F)F)S(C)(=O)=O [PF 431396] | 0.2 K | 2.9 K |  |  |  |
| CN(c1ncccc1CNc1nc(Nc2ccc3c(c2)CC(=O)N3)ncc1C(F)(F)F)S(C)(=O)=O [PF-00562271] |  | 1.1 K |  |  | TM Shift LIMK2 (K) (LIMK2KD; [3]): 0.3 K |
| CN(c1ncccc1CNc1nc(Nc2ccc3c(c2)CC(=O)N3)ncc1C(F)(F)F)S(C)(=O)=O [PF-562271] |  | -0.5 K |  |  | TM Shift LIMK2 (K) (LIMK2KD; [3]): -0.7 K |
| CS(=O)(=O)c1cccc(CNc2nc(Nc3ccc4c(c3)CCC(=O)N4)ncc2C(F)(F)F)c1 [PF-573228] | 0.7 K | 1.0 K |  |  |  |
| Nc1nccc(-c2c(-c3ccc(F)cc3)ncn2C2CCCCC2)n1 [PF-670462] | -0.2 K | 1.5 K |  |  |  |
| Cc1nc(Nc2n[nH]c3c2CN(C(=O)N[C@H](CN(C)C)c2ccccc2)C3(C)C)c2sccc2n1 [PF-03758309] | -0.4 K | 0.7 K |  |  |  |
| OCCn1cc(-c2cnc3nnn(Cc4ccc5ncccc5c4)c3n2)cn1 [PF-04217903] | -0.1 K | 0.3 K |  |  |  |
| COc1ccc(-c2cc3c(C)nc(N)nc3n([C@H]3CC[C@H](OCCO)CC3)c2=O)cn1 [PF-04691502] | 0.6 K | 0.9 K |  |  |  |
| CCc1cncnc1N1CCN(Cc2nc3ccc(C(F)(F)F)cc3[nH]2)CC1 [PF-04708671] |  | 1.6 K |  |  | TM Shift LIMK2 (K) (LIMK2KD; [3]): 1.7 K |
| CCc1cncnc1N1CCN(Cc2nc3ccc(C(F)(F)F)cc3[nH]2)CC1 [PF-4708671] |  | 0.4 K |  |  | TM Shift LIMK2 (K) (LIMK2KD; [3]): 3.5 K |
| Nc1ncnc2c1c(COc1cccc(Cl)c1)nn2C1CCOCC1 [PF-4800567] |  |  | -0.8 °C | 1.3 °C |  |
| CNC(=O)c1ccc(C)c(-n2c(C)cc(OCc3ccc(F)cc3F)c(Br)c2=O)c1 [PH-797804] |  |  | 0.1 °C | 1.3 °C |  |
| Cc1[nH]c(/C=C2\C(=O)Nc3ccc(S(=O)(=O)Cc4c(Cl)cccc4Cl)cc32)c(C)c1C(=O)N1CCC[C@@H]1CN1CCCC1 [PHA-665752] |  |  | -0.4 °C | 1.3 °C |  |
| CCc1cccc(CC)c1NC(=O)N1Cc2n[nH]c(NC(=O)c3ccc(N4CCN(C)CC4)cc3)c2C1 [PHA-680632] |  |  | 0.4 °C | 5 °C |  |
| O=C1NCCc2[nH]c(-c3ccncc3)cc21 [PHA-767491] | 0.4 K | 1.2 K |  |  |  |
| CC(C)CC(=O)Nc1[nH]nc2c1CN(C(=O)C1CCN(C)CC1)C2(C)C [PHA-793887] |  |  | 4.1 °C | 1 °C |  |
| CCCCCCCCCCCCc1ccc(S(=O)(=O)Nc2nncs2)cc1 [PHT-427] | 1.6 K | 0.6 K |  |  |  |
| Oc1cccc(-c2nc(N3CCOCC3)c3oc4ncccc4c3n2)c1 [PI-103] |  |  | 0.3 °C | -1 °C |  |
| Cc1ccc([N+](=O)[O-])cc1S(=O)(=O)N(C)/N=C/c1cnc2ccc(Br)cn12 [PIK-75] | 2.4 K | 3.3 K |  |  |  |
| CC(=O)Nc1nc(C)c(-c2ccc(Cl)c(S(=O)(=O)NCCO)c2)s1 [PIK-93] |  |  |  |  | TM Shift LIMK2 (K) (LIMK2KD; 10 µM): 1.7 K; TM Shift LIMK1 (K) (LIMK1KD): 1.0 K |
| Cc1ccccc1-n1c(Cn2ncc3c(N)ncnc32)nc2cccc(C)c2c1=O [PIK-293] | 0.9 K | 0.6 K |  |  |  |

| SMILES | TM Shift LIMK2 (K) (LIMK2KD; [1]) | TM Shift LIMK1 (K) (LIMK1KD; [2]) | ΔTm at 10 µM (LIMK2KD; [1]) | ΔTm at 10 µM (LIMK1KD; [2]) | further results |
| --- | --- | --- | --- | --- | --- |
| CCCS(=O)(=O)Nc1ccc(F)c(C(=O)c2c[nH]c3ncc(Cl)cc23)c1F [PLX-4720] |  |  | 3.8 °C | 2.5 °C |  |
| Cc1ccc(-c2nn(C(C)(C)C)c3ncnc(N)c23)cc1 [PP1] | 0.0 K | 2.0 K |  |  |  |
| CC(C)(C)n1nc(-c2ccc(Cl)cc2)c2c(N)ncnc21 [PP2] | 2.4 K | 2.0 K |  |  |  |
| Nc1ncnc2c1c(-c1cnc3[nH]ccc3c1)nn2C1CCCC1 [PP121] | 2.7 K | 3.6 K |  |  |  |
| COc1ccc(Cl)cc1NC(=O)Nc1cc(C)nc2ccccc12 [PQ 401] | -0.9 K | 0.2 K |  |  |  |
| NC(=O)c1cnc(N[C@@H]2CCCC[C@@H]2N)nc1Nc1cccc(-n2nccn2)c1 [PRT062607 (P505-15, BIIB057) HCl] |  |  | -1 °C | -0.6 °C |  |
| C1=C/COCc2cc(ccc2OCCN2CCCC2)Nc2nccc(n2)-c2cccc(c2)COC/1 [Pacritinib (SB1518), Pacritinib] |  |  | 1.5 °C | 1.6 °C |  |
| CC(=O)c1c(C)c2cnc(Nc3ccc(N4CCNCC4)cn3)nc2n(C2CCCC2)c1=O [Palbociclib (PD-0332991) HCl, Palbociclib] |  |  | 0.2 °C | 0.5 °C |  |
| COc1ccc(COc2cc3oc(=O)c4cc(C(C)O)ccc4c3cc2OC)cc1 (centres unmarked) [Palomid 529 (P529)] | 10.6 K | 0.0 K |  |  |  |
| CCOc1cc2ncc(C#N)c(Nc3ccc(F)c(Cl)c3)c2cc1NC(=O)/C=C/CN(C)C [Pelitinib (EKB-569), Pelitinib] |  |  | 1.5 °C | -0.7 °C |  |
| [H]/N=C(/N)N/C(=N/[H])NCCc1ccccc1 [Phenformin HCl] |  |  | 0.6 °C | -0.3 °C |  |
| Oc1cc(O)cc(/C=C/c2ccc(O)c(O)c2)c1 [Piceatannol] |  |  | 0.8 °C | -0.6 °C |  |
| CS(=O)(=O)N1CCN(Cc2cc3nc(-c4cccc5[nH]ncc45)nc(N4CCOCC4)c3s2)CC1 [Pictilisib] |  | 2.2 K |  |  | TM Shift LIMK2 (K) (LIMK2KD; [3]): 0.1 K |
| COc1ccc(Cl)c(Nc2nc3ccccc3nc2NS(=O)(=O)c2cccc(NC(=O)C(C)(C)N)c2)c1 [Pilaralisib] |  |  | 0.4 °C | -0.1 °C |  |
| O=C(NC[C@H](O)CO)c1ccncc1Nc1ccc(I)cc1F [Pimasertib (AS-703026), Pimasertib] |  |  | 2.1 °C | 0.8 °C |  |
| Cc1ccc(C(=O)Nc2ccc(CN3CCN(C)CC3)c(C(F)(F)F)c2)cc1C#Cc1cnc2cccnn12 [Ponatinib (AP24534), Ponatinib] |  |  | 4.6 °C | 5 °C |  |
| CC(C)(C)c1cc(NC(=O)Nc2ccc(-c3cn4c(n3)sc3cc(OCCN5CCOCC5)ccc34)cc2)no1 [Quizartinib (AC220), Quizartinib] |  |  | 1.3 °C | -1.4 °C |  |
| COc1ccc(F)c(F)c1C(=O)c1cnc(NC2CCN(S(C)(=O)=O)CC2)nc1N [R547] | -0.2 K | 0.1 K |  |  |  |
| Cn1c(Nc2ccc(C(F)(F)F)cc2)nc2cc(Oc3ccnc(-c4ncc(C(F)(F)F)[nH]4)c3)ccc21 [RAF265 (CHIR-265)] |  |  | 5.1 °C | 1.1 °C |  |
| O=C(NCc1cccc(O)c1)Nc1nc(-c2ccncc2)cs1 [RKI-1447] | 0.8 K | 1.4 K |  |  |  |
| Cc1cnc(NC(=O)Nc2cc(Br)c(C)cc2OC[C@@H]2CNCCO2)cn1 [Rabusertib] |  | -1.1 K |  |  | TM Shift LIMK2 (K) (LIMK2KD; [3]): 0.2 K |
| CC(C)(C)Cn1c(N)nc2ccc(-c3[nH]c(C(C)(C)C)nc3-c3ccc(F)cc3)nc21 [Ralimetinib] |  |  | 3.1 °C | 3.2 °C |  |
| CO[C@H]1C[C@@H]2CC[C@@H](C)[C@@](O)(O2)C(=O)C(=O)N2CCCC[C@H]2C(=O)O[C@H]([C@H](C)C[C@@H]2CC[C@@H](O)[C@H](OC)C2)CC(=O)[C@H](C)/C=C(\C)[C@@H](O)[C@@H](OC)C(=O)[C@H](C)C[C@H](C)/C=C/C=C/C=C/1C [Rapamycin (Sirolimus), Rapamycin] |  |  | 0 °C | -0.1 °C |  |
| COc1cc(F)c(F)c(Nc2ccc(I)cc2F)c1NS(=O)(=O)C1(C[C@H](O)CO)CC1 [Refametinib] |  |  | 1.1 °C | -1 °C |  |
